Counter-ions that a name gives are not always drawn.

The values below come from patent publication US8389513B2, “2-amino-5,5-difluoro-5,6-dihydro-4H-[1,3]oxazin-4-yl)-phenyl]-amides” (Hoffmann-La Roche Inc., priority 2009, dated 2013).

For assay [1], the target named is T1, BACE2 (Rattus norvegicus, UniProt Q6IE75).
T1 construct: endogenous cellular BACE2 in the Ins1e rat cell line; endogenous in cells; host or cells: INS-TMEM27 (INS1e-derived rat cell line with TetOn-inducible full-length hTMEM27)
T1 sequence (Q6IE75 63-514): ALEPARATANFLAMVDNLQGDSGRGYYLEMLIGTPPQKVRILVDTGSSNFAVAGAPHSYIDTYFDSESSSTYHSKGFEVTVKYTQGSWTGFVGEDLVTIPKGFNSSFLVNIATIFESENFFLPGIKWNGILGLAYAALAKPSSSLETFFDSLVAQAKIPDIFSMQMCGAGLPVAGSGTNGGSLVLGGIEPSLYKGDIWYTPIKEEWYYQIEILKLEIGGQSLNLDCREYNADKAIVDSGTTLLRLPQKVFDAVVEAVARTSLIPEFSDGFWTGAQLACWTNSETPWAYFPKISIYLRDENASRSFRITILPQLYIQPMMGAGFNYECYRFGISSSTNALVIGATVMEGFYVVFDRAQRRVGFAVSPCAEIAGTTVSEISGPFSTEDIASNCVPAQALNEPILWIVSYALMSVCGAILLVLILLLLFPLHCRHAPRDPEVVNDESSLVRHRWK
Kind of assay: Assay for BACE inhibition by measuring cellular TMEM27 cleavage. The class given is cell-based. As to conditions: INS-TMEM27 cells (INS1e-derived); shed TMEM27 by ELISA; read-out: BACE2 cell act. IC50. From the text:
Assay for BACE Inhibition by Measuring Cellular TMEM27 Cleavage:
The assay uses the principle of inhibition of human TMEM27 cleavage by endogenous cellular BACE2 in the Ins1e rat cell line and shedding from the cell surface into the culture medium, followed by detection in an ELISA assay. Inhibition of BACE2 prevents the cleavage and shedding in a dose-dependent manner.
The stable cell line “INS-TMEM27” represents an INS1e-derived cell line with inducible expression (using the TetOn system) of full-length hTMEM27 in a doxycycline-dependent manner. The cells are cultured throughout the experiment in RPMI1640+Glutamax (Invitrogen) Penicillin/Streptomycin, 10% Fetal bovine serum, […] pyruvate, […] beta-mercatptoethanol, 100 micrograms/ml G418 and 100 microgram/ml hygromycin and are grown inadherent culture at 37° C. in a standard CO2 cell culture incubator. INS-TMEM27 cells are seeded in 96-well plates. After 2 days in culture, BACE2 inhibitor is added in a range of concentrations as required by the assay and after a further two hours, doxycycline is added to a final concentration of 500 ng/ml. The cells are incubated for a further 46 hours and the supernatant harvested for detection of shed TMEM27.
An ELISA assay (using a pair of mouse anti-human-TMEM27 antibodies, raised against the extracellular domain of TMEM27) is used for detection of TMEM27 in the culture medium. An EC50 for BACE2 inhibition is calculated using the ELISA readout for each inhibitor concentration with standard curve-fitting software such as XLFit for the Excel spreadsheet program.
(An ELISA detects its analyte on a solid surface through an enzyme-linked reagent.)

For assay [2], the target named is T2, BACE1 (Homo sapiens, UniProt P56817).
T2 construct: Human HEK293 cells which are stably transfected with a vector expressing a cDNA of the human APP wt gene (APP695); endogenous in cells; host or cells: HEK293 stably transfected with human APP695 wt
T2 sequence (P56817 46-501): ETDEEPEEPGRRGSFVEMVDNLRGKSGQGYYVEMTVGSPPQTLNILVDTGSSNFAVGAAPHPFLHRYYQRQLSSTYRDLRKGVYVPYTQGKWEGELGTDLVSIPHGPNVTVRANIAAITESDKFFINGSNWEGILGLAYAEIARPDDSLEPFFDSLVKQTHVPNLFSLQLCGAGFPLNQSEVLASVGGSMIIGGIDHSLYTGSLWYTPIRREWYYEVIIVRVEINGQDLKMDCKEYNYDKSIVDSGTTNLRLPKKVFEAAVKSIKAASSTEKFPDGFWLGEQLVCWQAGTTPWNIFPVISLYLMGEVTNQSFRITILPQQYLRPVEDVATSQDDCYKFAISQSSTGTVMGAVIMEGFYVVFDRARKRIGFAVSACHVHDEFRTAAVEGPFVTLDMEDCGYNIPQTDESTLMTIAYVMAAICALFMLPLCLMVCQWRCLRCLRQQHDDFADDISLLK
Kind of assay: Cellular Aβ-lowering assay (Aβ40 ELISA). Format: cell-based. As to conditions: HEK293 cells stably expressing human APP695; Aβ40 in culture supernatant; read-out: BACE1 cell act. Aβ40 IC50. As to the method: Cellular Aβ-Lowering Assay:
Human HEK293 cells which are stably transfected with a vector expressing a cDNA of the human APP wt gene (APP695) were used to assess the potency of the compounds in a cellular assay. The cells were seeded in 96-well microtiter plates in cell culture medium (Iscove, plus 10% (v/v) fetal bovine serum, glutamine, penicillin/streptomycin) to about 80% confluence and the compounds were added at a 10× concentration in 1/10 volume of medium without FCS containing 8% DMSO (final concentration of DMSO was kept at 0.8% v/v). After 18-20 hrs incubation at 37° C. and 5% CO2 in a humidified incubator the culture supernatant was harvested for the determination of Aβ40 concentrations. […] Subsequently the wells of the microtiter plate were washed extensively with Tris-buffered saline containing 0.05% Tween 20 and the assay was developed with tetramethylbenzidine/H2O2 in citric acid buffer. After stopping the reaction with one volume 1 NH2SO4 the reaction was measured in an ELISA reader at 450 nm wavelength. The concentrations of Aβ in the culture supernatants were calculated from a standard curve obtained with known amounts of pure Aβ peptide.

Consider `C[C@]1(c2cc(NC(=O)c3ccc(F)cn3)ccc2F)N=C(N)OCC1(F)F` [Example 2, 5-Fluoro-pyridine-2-carboxylic acid [3-((R)-2-amino-5,5-difluoro-4-methyl-5,6-dihydro-4H-[1,3]oxazin-4-yl)-4-fluoro-phenyl]-amide], for which the IC50 in assay [1] is 56 nM. Consider `CC1(C)OC(N)=N[C@](C)(c2cc(NC(=O)c3cnc(OCC4CC4)cn3)ccc2F)C1(F)F` [Example 36, 5-Cyclopropylmethoxy-pyrazine-2-carboxylic acid [3-((R)-2-amino-5,5-difluoro-4,6,6-trimethyl-5,6-dihydro-4H-[1,3]oxazin-4-yl)-4-fluoro-phenyl]-amide], for which, in assay [2], the IC50 stood at 2460 nM.

For the compound `C[C@]1(c2cc(NC(=O)c3ccn(C(F)F)n3)ccc2F)N=C(N)OCC1(F)F` [Example 64, 1-Difluoromethyl-1H-pyrazole-3-carboxylic acid [3-((R)-2-amino-5,5-difluoro-4-methyl-5,6-dihydro-4H-[1,3]oxazin-4-yl)-4-fluoro-phenyl]-amide], the IC50 in assay [1] was found to be 13 nM. Consider `CCn1cc(Cl)c(C(=O)Nc2ccc(F)c([C@@]3(C)N=C(N)OCC3(F)F)c2)n1` [Example 77, 4-Chloro-1-ethyl-1H-pyrazole-3-carboxylic acid [3-((R)-2-amino-5,5-difluoro-4-methyl-5,6-dihydro-4H-[1,3]oxazin-4-yl)-4-fluoro-phenyl]-amide], for which, in assay [2], the IC50 is 100 nM. `CC1(C)OC(N)=N[C@](C)(c2cc(NC(=O)c3ccc(OCC(F)(F)C(F)F)cn3)ccc2F)C1(F)F` [Example 30, 5-(2,2,3,3-Tetrafluoro-propoxy)-pyridine-2-carboxylic acid [3-((R)-2-amino-5,5-difluoro-4,6,6-trimethyl-5,6-dihydro-4H-[1,3]oxazin-4-yl)-4-fluoro-phenyl]-amide]: in assay [2], the half-maximal inhibitory concentration (IC50) turned out to be 230 nM. The same measure, in the same setting: in the case of `CCc1nc(C(=O)Nc2ccc(F)c([C@@]3(C)N=C(N)OCC3(F)F)c2)co1` [Example 56, 2-Ethyl-oxazole-4-carboxylic acid [3-((R)-2-amino-5,5-difluoro-4-methyl-5,6-dihydro-4H-[1,3]oxazin-4-yl)-4-fluoro-phenyl]-amide] it was 140 nM; in that of `C[C@]1(c2cc(NC(=O)c3cnc(OCC4CC4)cn3)ccc2F)N=C(N)OCC1(F)F` [Example 46, 5-Cyclopropylmethoxy-pyrazine-2-carboxylic acid [3-((R)-2-amino-5,5-difluoro-4-methyl-5,6-dihydro-4H-[1,3]oxazin-4-yl)-4-fluoro-phenyl]-amide], 70 nM; in that of `CCc1ocnc1C(=O)Nc1ccc(F)c([C@@]2(C)N=C(N)OCC2(F)F)c1` [Example 69, formate], 1480 nM.

As to `C[C@]1(c2cc(NC(=O)c3ccc(C(N)=O)cn3)ccc2F)N=C(N)OCC1(F)F` [Example 72], the IC50 in assay [2] came to 230 nM. Still for that read-out and setting: to `Cc1conc1C(=O)Nc1ccc(F)c([C@@]2(C)N=C(N)OCC2(F)F)c1` [Example 61, 4-Methyl-isoxazole-3-carboxylic acid [3-((R)-2-amino-5,5-difluoro-4-methyl-5,6-dihydro-4H-[1,3]oxazin-4-yl)-4-fluoro-phenyl]-amide] belongs 305 nM; to `CC1(C)OC(N)=N[C@](C)(c2cc(NC(=O)c3ccc(OCC(F)F)cn3)ccc2F)C1(F)F` [Example 28, 5-(2,2-Difluoro-ethoxy)-pyridine-2-carboxylic acid [3-((R)-2-amino-5,5-difluoro-4,6,6-trimethyl-5,6-dihydro-4H-[1,3]oxazin-4-yl)-4-fluoro-phenyl]-amide], 200 nM; to `C[C@]1(c2cc(NC(=O)c3nn(CC(F)(F)F)cc3Cl)ccc2F)N=C(N)OCC1(F)F` [Example 78, 4-Chloro-1-(2,2,2-trifluoro-ethyl)-1H-pyrazole-3-carboxylic acid [3-((R)-2-amino-5,5-difluoro-4-methyl-5,6-dihydro-4H-[1,3]oxazin-4-yl)-4-fluoro-phenyl]-amide], 1770 nM.

On to `CC1(C)OC(N)=N[C@](C)(c2cc(NC(=O)c3ccc(OCC4CC4)nc3)ccc2F)C1(F)F` [Example 31, N-[3-((R)-2-Amino-5,5-difluoro-4,6,6-trimethyl-5,6-dihydro-4H-[1,3]oxazin-4-yl)-4-fluoro-phenyl]-6-cyclopropylmethoxy-nicotinamide], for which, in assay [2], the IC50 stood at 2810 nM. On the same count and under the same terms, to `C[C@]1(c2cc(NC(=O)c3cocn3)ccc2F)N=C(N)OCC1(F)F` [Example 55, Oxazole-4-carboxylic acid [3-((R)-2-amino-5,5-difluoro-4-methyl-5,6-dihydro-4H-[1,3]oxazin-4-yl)-4-fluoro-phenyl]-amide] belongs 495 nM; to `C[C@]1(c2cc(NC(=O)c3ccc(C#N)c[n+]3[O-])ccc2F)N=C(N)OCC1(F)F` [Example 83, 5-Cyano-1-oxy-pyridine-2-carboxylic acid [3-((R)-2-amino-5,5-difluoro-4-methyl-5,6-dihydro-4H-[1,3]oxazin-4-yl)-4-fluoro-phenyl]-amide], 310 nM; to `C[C@]1(c2cc(NC(=O)c3ccc([N+](=O)[O-])o3)ccc2F)N=C(N)OCC1(F)F` [Example 81, 5-Nitro-furan-2-carboxylic acid [3-((R)-2-amino-5,5-difluoro-4-methyl-5,6-dihydro-4H-[1,3]oxazin-4-yl)-4-fluoro-phenyl]-amide], 1900 nM. Take `C[C@]1(c2cc(NC(=O)c3ccc(C#CC4CC4)cn3)ccc2F)N=C(N)OCC1(F)F` [Example 40, 5-Cyclopropylethynyl-pyridine-2-carboxylic acid [3-((R)-2-amino-5,5-difluoro-4-methyl-5,6-dihydro-4H-[1,3]oxazin-4-yl)-4-fluoro-phenyl]-amide]: the half-inhibitory concentration (IC50) in assay [2] was 460 nM. With `C[C@]1(c2cc(NC(=O)/C=C/c3ccco3)ccc2F)N=C(N)OCC1(F)F` [Example 82, (E)-N-[3-((R)-2-Amino-5,5-difluoro-4-methyl-5,6-dihydro-4H-[1,3]oxazin-4-yl)-4-fluoro-phenyl]-3-furan-2-yl-acrylamide], the IC50 in assay [2] amounted to 910 nM. As for `CC1(C)OC(N)=N[C@](C)(c2cc(NC(=O)c3ccn(C(F)F)n3)ccc2F)C1(F)F` [Example 38, 1-Difluoromethyl-1H-pyrazole-3-carboxylic acid [3-((R)-2-amino-5,5-difluoro-4,6,6-trimethyl-5,6-dihydro-4H-[1,3]oxazin-4-yl)-4-fluoro-phenyl]-amide], the IC50 in assay [2] is 6 nM. Same read-out and setting: to `C[C@]1(c2cc(NC(=O)c3coc(CCl)n3)ccc2F)N=C(N)OCC1(F)F` [Example 57, 2-Chloromethyl-oxazole-4-carboxylic acid [3-((R)-2-amino-5,5-difluoro-4-methyl-5,6-dihydro-4H-[1,3]oxazin-4-yl)-4-fluoro-phenyl]-amide] belongs 73 nM; to `C[C@]1(c2cc(NC(=O)c3coc(CF)n3)ccc2F)N=C(N)OCC1(F)F` [Example 79, 2-Fluoromethyl-oxazole-4-carboxylic acid [3-((R)-2-amino-5,5-difluoro-4-methyl-5,6-dihydro-4H-[1,3]oxazin-4-yl)-4-fluoro-phenyl]-amide formate], 3 nM; to `CC(=O)Nc1ccc(F)c([C@@]2(C)N=C(N)OCC2(F)F)c1` [Example 73, N-[3-((R)-2-Amino-5,5-difluoro-4-methyl-5,6-dihydro-4H-[1,3]oxazin-4-yl)-4-fluoro-phenyl]-acetamide], 180 nM.

Broadly, the IC50 is the concentration needed to halve the response being measured.
